According to patent publication US20120283209A1, “ANTIBACTERIAL AMINOGLYCOSIDE ANALOGS” (Achaogen, Inc., priority 2009, published 2012):
Converted amounts (≈) assume the structure as drawn.

Tests used:
[1] = system: AECO001 (E. coli ATCC25922); assay: MIC assay, CLSI broth microdilution; type: cell-based; details: Escherichia coli, Mueller Hinton Broth, 35 C, 20 hours
Protocol: (§1) Minimum inhibitory concentrations (MIC) were determined by reference Clinical and Laboratory Standards Institute (CLSI) broth microdilution methods per M7-A7 [2006]. Quality control ranges utilizing E. coli ATCC 25922, P. aeruginosa ATCC 27853 and S. aureus ATCC 29213, and interpretive criteria for comparator agents were as published in CLSI M100-S17 [2007]. Briefly, serial two-fold dilutions of the test compounds were prepared at 2× concentration in Mueller Hinton Broth. The compound dilutions were mixed in 96-well assay plates in a 1:1 ratio with bacterial inoculum. The inoculum was prepared by suspension of a colony from an agar plate that was prepared the previous day. Bacteria were suspended in sterile saline and added to each assay plate to obtain a final concentration of 5×10^5 CFU/mL. The plates were incubated at 35 C for 20 hours in ambient air.

[2] = system: APAE001 (P. aeruginosa ATCC27853); assay: MIC assay, CLSI broth microdilution; type: cell-based; details: Pseudomonas aeruginosa, Mueller Hinton Broth, 35 C, 20 hours
Protocol: as §1

In the case of `NC[C@@H](O)[C@H](O)C(=O)N[C@@H]1C[C@H](N)[C@@H](O[C@H]2O[C@H](CN)[C@@H](O)[C@@H](O)[C@H]2N)[C@H](O[C@@H]2O[C@H](CO)[C@@H](O[C@H]3O[C@@H](CN)[C@@H](O)[C@H](O)[C@H]3N)[C@H]2O)[C@H]1O` [1/7], the MIC [1] is reported as 1 to 16 µg/mL (≈ 1.37 to 21.9 µM) and the MIC [2] is reported as at most 1 µg/mL.

`NC[C@@H]1O[C@H](O[C@H]2[C@@H](O)[C@H](O[C@@H]3[C@@H](O)[C@H](NC(=O)[C@@H](O)C(F)(F)CN)C[C@H](N)[C@H]3O[C@H]3O[C@H](CN)[C@@H](O)[C@@H](O)[C@H]3N)O[C@@H]2CO)[C@H](N)[C@@H](O)[C@@H]1O` [4/3] showed an MIC [1] of 1 to 16 µg/mL (≈ 1.33 to 21.3 µM) and an MIC [2] of at most 1 µg/mL.

`NC[C@@H](F)[C@H](O)C(=O)N[C@@H]1C[C@H](N)[C@@H](O[C@H]2O[C@H](CN)[C@@H](O)[C@@H](O)[C@H]2N)[C@H](O[C@@H]2O[C@H](CO)[C@@H](O[C@H]3O[C@@H](CN)[C@@H](O)[C@H](O)[C@H]3N)[C@H]2O)[C@H]1O` [3/3] was tested, and the MIC [1] was 1 to 16 µg/mL (≈ 1.36 to 21.8 µM) and the MIC [2] was at most 1 µg/mL.

`NC[C@@H]1O[C@H](O[C@H]2[C@@H](O)[C@H](O[C@@H]3[C@@H](O)[C@H](NC(=O)[C@@H](O)[C@@H](O)CN)C[C@H](N)[C@H]3O[C@H]3O[C@H](CN)[C@@H](O)[C@@H](O)[C@H]3N)O[C@@H]2CO)[C@H](N)[C@@H](O)[C@@H]1O` [2/3] was tested, and the MIC [1] was 1 to 16 µg/mL (≈ 1.37 to 21.9 µM) and the MIC [2] was at most 1 µg/mL.
